Reference: US20040167170A1, “Methods of preventing breast cancer” (priority 1996, published 2004)

Assays:
Assay type in all cases: in vivo, human
postmenopausal women = test: Integrated safety analysis of Phase III clinical trials of raloxifene for prevention or treatment of osteoporosis; conditions: all doses integrated; more than 12,850 patient-years of exposure; nearly 3 years of clinical experience
Description: Because the goal of disease prevention is to protect women from the carcinogenic event (or the occurrence of precancerous lesions) and the subsequent promotion or progression to invasive disease (cancer), prolonged use of a preventive therapeutic agent is necessary (Kelloff et.al. Approaches to the Development and Marketing Approval of Drugs that Prevent Cancer, Cancer Epidemiology, Biomarkers & Prevention, vol 4, pp.1-10, 1995). […] Raloxifene has been studied in more than 12,000 subjects. Extensive integrated data from Phase III clinical trials of raloxifene for the prevention or treatment of osteoporosis in postmenopausal women, has been analyzed for safety. When all doses of raloxifene are integrated, this analysis has included more than 12,850 patient-years of exposure to raloxifene.

[1] = test system: breast cancer in postmenopausal women with established osteoporosis; test: Large (7704-patient) osteoporosis treatment study of postmenopausal women with established osteoporosis: incidence of breast cancer; conditions: for Relative Risk (Raloxifene to Placebo) of breast cancer / Raloxifene Cases n/N (%): 60 and 120 mg/day; for Raloxifene Cases n/N (%): N estimated
Description: (§1) As support for the utility of the current invention, the interim safety results of Phase III clinical trials with raloxifene are presented, below.
(§2) The majority of cases of breast carcinoma have occurred in the large, ongoing osteoporosis treatment study of 7704 postmenopausal women with established osteoporosis. However additional cases have been reported in smaller studies of postmenopausal women at risk for osteoporosis. The studies reported herein are double-blind and placebo-controlled; most have durations of approximately three years and were designed to determine the efficacy of raloxifene to prevent or treat osteoporosis in postmenopausal women. In addition, the studies provide information on the status of cardiovascular health and other major medical conditions (including the incidence of breast carcinoma). Patients were randomly assigned to receive either placebo, 30 mg, 60 mg, 120 mg or 150 mg of drug per day, orally. All patients and investigators are blinded to study drug assignment (double-blind design). All patients in all groups received daily calcium supplements of approximately 500 mg/day. In addition, patients in the large, 7704-patient treatment study received Vitamin D supplements, 400-600 IU/day.
(§3) Subjects selected for these studies are postmenopausal women (at least 2 years from the time of the last menstrual period), ages range from approximately forty-five to eighty years.
(§4) Typical exclusion criteria from participation in these studies included: l)the presence of serious systemic disease, 2)acute or chronic liver disease, 3)substantially impaired kidney function, 4)subjects who, in the opinion of the investigator, have poor medical or psychiatric risk factors for inclusion in a clinical trial, e.g., drug or alcohol abuse, etc. 5)subjects with any history of cancer within five years of entry into the study, with the exception of superficial lesions, e.g., basal cell carcinoma of the skin 6)the presence of abnormal uterine bleeding. Most important of the exclusion criteria was the exclusion of women with present or past personal history of breast cancer or other estrogen-dependent neoplasia. These exclusion criteria generate a population of subjects which reflects the general population in regard to the risk of developing breast carcinoma, or in other words, those persons at no particular increased risk of developing breast cancer.
(§5) Potential subjects were screened prior to enrollment into the study. Subjects were required to reveal their medical histories and current medical conditions. All potential patients were required either to have a baseline mammogram or ultrasound evaluation of the breast, or to have had one of these procedures in the 12-month period preceding study entry. In most studies, a two-year follow-up mammogram is required; however, annual mammograms are recommended. All subjects with diagnosed and reported carcinomas of the breast were required to discontinue immediately from study participation, and were referred by the site investigator for appropriate oncologic evaluation and care.
(§6) The results shown in Tables 1-4 are for subjects with histopathologic diagnoses of carcinoma of the breast. The data include results from optional one year mammograms, as well as the required baseline and two year follow-up mammograms. Once a diagnosis of breast cancer was made, these subjects were discontinued from the study and their status decoded to reveal the therapy (arm) to which they been assigned (i.e. what study drug they had received).
(§7) For the studies reported in this invention, the number of patients randomly assigned to receive placebo is approximately 3195. The number of patients randomly assigned to receive raloxifene (all doses combined) is approximately 6681. […] Table 1 presents the results for all placebo-controlled studies, with data for all doses of raloxifene pooled. […]

[2] = test system: breast cancer in postmenopausal women; test: Phase III double-blind placebo-controlled raloxifene trials, all placebo-controlled studies combined: incidence of breast cancer; conditions: for Relative Risk (Raloxifene to Placebo) of breast cancer / Raloxifene Cases n/N (%): all raloxifene doses pooled; for Raloxifene Cases n/N (%): N estimated
Description: as §1, §2, §3, §4, §5
The overall ratio of treatment assignments for randomized patients (raloxifene to placebo) is approximately 2:1.
as §6, §7

[3] = 1-Year Follow-up mammograms (6-18 months)
[4] = 2-year Follow-up mammograms (18-30 months)
[5] = Baseline mammograms (1-6 months)
[6] = diagnosis at least 1 month after therapy assignment
[7] = diagnosis at least 12 months after therapy assignment
[8] = vs placebo, cases at least 12 months after randomization
[9] = vs placebo, diagnosed at least one month after random assignment

O=C(c1ccc(OCCN2CCCCC2)cc1)c1c(-c2ccc(O)cc2)sc2cc(O)ccc12 [Raloxifene]
tolerability / safety (postmenopausal women): extremely well-tolerated | Raloxifene Cases [1, 3]: 4 | Relative Risk of breast cancer [1, 3]: 0.33 | Raloxifene Cases [1, 4]: 3 | Relative Risk of breast cancer [1, 4]: 0.12 | Raloxifene Cases [1, 5]: 5 | Relative Risk of breast cancer [1, 5]: 1.25 | Relative Risk (Raloxifene to Placebo) of breast cancer [1, 6]: 0.29 | Raloxifene Cases n/N (%) [1, 6]: 12/5317 | Relative Risk (Raloxifene to Placebo) of breast cancer [1, 7]: 0.14 | Raloxifene Cases n/N (%) [1, 7]: 5/5317 | decrease in the incidence of breast carcinoma [1, 8]: 86% | decrease in the rate of breast cancer [1, 9]: 71% | Raloxifene Cases [2, 3]: 7 | Relative Risk of breast cancer [2, 3]: 0.56 | Raloxifene Cases [2, 4]: 5 | Relative Risk of breast cancer [2, 4]: 0.15 | Raloxifene Cases [2, 5]: 5 | Relative Risk of breast cancer [2, 5]: 1.20 | Relative Risk (Raloxifene to Placebo) of breast cancer [2, 6]: 0.36 | Raloxifene Cases n/N (%) [2, 6]: 18/6681 | Relative Risk (Raloxifene to Placebo) of breast cancer [2, 7]: 0.23 | Raloxifene Cases n/N (%) [2, 7]: 10/6681 | breast cancer cases reported in the raloxifene treatment groups ([2]; placebo-controlled trials of at least 6 months duration, more than 1-month of treatment, raloxifene to placebo approximately 2:1): 18 cases | decrease in the incidence of breast cancer [2, 8]: 77% | decrease in the rate of breast cancer [2, 9]: 64%
